From patent US12054497B2, “Substituted heterocyclic fused cyclic compound, preparation method therefor and pharmaceutical use thereof” (GENFLEET THERAPEUTICS (SHANGHAI) INC., priority 2019, dated 2024) come the findings set out here.

What all share (assay type): cell-based, human
The test system of experiment [1] is NCI-H358 cells with Kras G12C mutation. In words: Cell proliferation inhibition experiment, 3D spheroid, CellTiter-Glo (Test Example 1). The note with it: 5 days. As for the experimental part: (§1) NCI-H358 was a human NSCLC cell line with Kras G12C mutation, which was cultured in a RPMI-1640 medium with 10% fetal bovine serum (FBS). A549 was a human lung adenocarcinoma cell line with Kras G12S mutation, which was cultured in an F-12K medium with 10% FBS. Cells in logarithmic growth phase were detached with trypsin and EDTA, collected and counted, and H358 was regulated to 1.8E4 cells/ml by using an RPMI-1640 medium with 2% FBS, while A549 was regulated to 8.9E3 cells/ml with an F-12K medium containing 2% FBS. 800 (45 μl) H358 cells and 400 (45 μl) A549 cells were seeded to 384-well spheroid plates, respectively, and cultured overnight to establish 3D cell models. 1000× stock solutions of compounds at a concentration gradient of 3.16 were prepared by using DMSO, and diluted 100 times by the medium with 2% FBS into 10× stock solutions of compounds. On the day after cell seeding, 5 μl of 10× stock solution of a compound was added to each well of cell culture plate, with a final concentration being 1× and a DMSO content of 0.1%. DMSO was used as the control, and the medium with 2% FBS was used as blank control group. After 5 days of cell culture with the compound, 25 μl of CellTiter-Glo working solution was added to each well, and mixed uniformly at 400 rpm and incubation for 30 minutes. After standing at room temperature for 30 minutes, 40 μl of mixed solution was transferred to a 384-well plate with white clear bottom. A value of luminescence was then read, and a cell proliferation inhibition rate (IR) (%)=(RLU control-RLU compound)/(RLU control−RLU blank)×100%. The value of IC50 was calculated by fitting a gradiently diluted concentration of the compound and the corresponding cell proliferation inhibition rate using a Prism 6 four-parameter method.
(ATP-based viability assays read luminescence as a measure of living cells.)

Experiment [2] has as its system A549 cells with Kras G12S mutation. The description is as above. The note with it: 5 days. Here is the method: as §1
Experiment [3] deals with MIA PaCa-2 cells with Kras G12C mutation. In words: Cell proliferation inhibition experiment, 3D spheroid, CellTiter-Glo (Test Example 3). The note with it: Homo sapiens, MIA PaCa-2, 120 h, 5 days, read-out: MIA-PaCa2 IC50. Here is the method:
MIA PaCa-2 was a human pancreatic carcinoma cell line with Kras G12C mutation, which was cultured in a DMEM with 10% FBS and 2.5% Horse serum. A549 was a human lung adenocarcinoma cell line with Kras G12S mutation, which was cultured in an F-12K medium with 10% FBS. Cells in logarithmic growth phase were detached with trypsin and EDTA, collected and counted, and 200 MIA PaCa-2 cells and 400 A549 cells were seeded to 384-well spheroid plates, respectively, and cultured overnight to establish 3D cell models. 1000× stock solutions of compounds at a concentration gradient of 3.16 were prepared by using DMSO, and diluted 100 times by the medium into 10× stock solutions of compounds. On the day after cell seeding, 10× stock solution of a compound was added to each well of cell culture plate, with a final concentration being 1× and a DMSO content of 0.1%. DMSO was used as the control, and the medium was used as the blank. After 5 days of cell culture with the compound, 30 μl of CellTiter-Glo working solution was added to each well, and mixed uniformly and incubation for 30 minutes. After standing at room temperature for 30 minutes, 40 μl of mixed solution was transferred to a 384-well plate with white unclear bottom. A value of luminescence intensity was then read, and a cell proliferation inhibition rate (IR) (%)=(RLU control−RLU compound)/(RLU control−RLU blank)×100%. The value of IC50 was calculated by fitting a gradiently diluted concentration of the compound and the corresponding cell proliferation inhibition rate using an XLFit four-parameter method.

Experiment [4] concerns phosphorylated ERK in MIA PaCa2 cells with Kras G12C mutation. In words: p-ERK HTRF assay for cells (Test Example 2). The note with it: Homo sapiens, MIA PaCa-2, 2 h, MIA PaCa2 cells, 2 hours with compound; read-out: p-ERK IC50. Here is the method:
MIA PaCa2 was a human pancreatic carcinoma cell line with Kras G12C mutation, which was cultured in a DMEM with 10% FBS and 2.5% Horse serum. Cells in logarithmic growth phase were detached with trypsin and EDTA, collected and counted, and 2.5E4 cells were seeded to a 96-well cell culture plate and cultured overnight. 1000× stock solutions of compounds at a concentration gradient of 3.16 were prepared by using DMSO, and diluted 200 times by the medium into 5× stock solutions of compounds. On the day after cell seeding, 5× stock solution of a compound was added to each well of cell culture plate, with a final concentration being 1× and a DMSO content of 0.1%. DMSO was used as the control. The residual culture was removed after culturing for 2 hours with the compound. To each well, 50 ul of cell lysis buffer was added and mixed uniformly and incubation for 30 minutes. Subsequently, 16 ul of mixed solution was transferred to a 96-well plate with white unclear bottom, and 16 ul of cell lysis buffer was added to the blank control group. After the completion of transfer, 4 ul of p-ERK HTRF antibody mixture was added to each well, and a value of fluorescence intensity was read after incubation for 4 hours. The inhibition rate (IR) of the compound was calculated by the following equation: IR (%)=(RLU control-RLU compound)/(RLU control−RLU blank)×100%. The value of IC50 was calculated by fitting a gradiently diluted concentration of the compound and the corresponding cell proliferation inhibition rate using a Prism 8 four-parameter method.
(Time-resolved FRET reads energy transfer from a long-lived donor to a nearby acceptor.)

Take `C=CC(=O)N1C[C@@H]2C(=O)N(C)c3c(c4cc(F)c(-c5c(O)cccc5F)nc4n(-c4c(C(C)C)ncnc4C(C)C)c3=O)N2C[C@H]1C` [Compound Z40, (2R,4aR)-3-acryloyl-8-(4,6-diisopropylpyrimidin-5-yl)-11-fluoro-10-(2-fluoro-6-hydroxyphenyl)-2,6-dimethyl-2,3,4,4a,6,8-hexahydro-1H-pyrazino[1′,2′:4,5]pyrazino[2,3-c][1,8]naphthyridin-5,7-dione]: the IC50 – broadly, the concentration that gives 50% inhibition – was 11 nM in experiment [1] (Homo sapiens, NCI-H358, 120 h); over 30000 nM in experiment [2] (Homo sapiens, A549, 120 h); 12 nM in experiment [3]; 78 nM in experiment [4].
Turning to `C=CC(=O)N1CCN2c3c(c(=O)n(-c4c(C)ccnc4C(C)C)c4nc(-c5c(O)cccc5F)c(F)cc34)OC[C@@H]2C1` [Compound Z28, (4aS)-3-acryloyl-11-fluoro-10-(2-fluoro-6-hydroxyphenyl)-8-(2-isopropyl-4-methylpyridin-3-yl)-1,2,3,4,4a,5-hexahydropyrazino[1′,2′:4,5][1,4]oxazino[2,3-c][1,8]naphthyridin-7(8H)-one], the 50% inhibitory concentration (IC50) came to 90 nM in experiment [1] (Homo sapiens, NCI-H358, 120 h); 16900 nM in experiment [2] (Homo sapiens, A549, 120 h); 234 nM in experiment [3].
In the same order, the values of `C=CC(=O)N1C[C@@H]2C(=O)N(C)c3c(c4cc(F)c(-c5c(O)cccc5F)nc4n(-c4c(C(C)C)nn(C)c4C)c3=O)N2C[C@H]1C` [Compound Z47, (2R,4aR)-3-acryloyl-11-fluoro-10-(2-fluoro-6-hydroxyphenyl)-8-(3-isopropyl-1,5-dimethyl-1H-pyrazol-4-yl)-2,6-dimethyl-2,3,4,4a,6,8-hexahydro-1H-pyrazino[1′,2′:4,5]pyrazino[2,3-c][1,8]naphthyridin-5,7-dione] are 31 nM, over 30000 nM and 83 nM.
`C=CC(=O)N1CCN2c3c(c(=O)n(-c4c(C(C)C)ncnc4C(C)C)c4nc(-c5c(O)cccc5F)c(F)cc34)N(C)C(=O)[C@H]2C1` [Compound Z41, (4aR)-3-acryloyl-8-(4,6-diisopropylpyrimidin-5-yl)-11-fluoro-10-(2-fluoro-6-hydroxyphenyl)-6-methyl-2,3,4,4a,6,8-hexahydro-1H-pyrazino[1′,2′:4,5]pyrazino[2,3-c][1,8]naphthyridin-5,7-dione]: the IC50 in experiment [1] (Homo sapiens, NCI-H358, 120 h) was 17 nM; in experiment [2] (Homo sapiens, A549, 120 h), over 30000 nM; in experiment [3], 44 nM; in experiment [4], 279 nM.
For the compound `C=CC(=O)N1CC2C(=O)N(C)c3c(c4cc(F)c(-c5c(O)cccc5F)nc4n(-c4c(C(F)(F)F)ccnc4C(C)C)c3=O)N2C[C@H]1C` (single isomer, unassigned) [Compound Z49-1], the IC50 worked out at 9 nM in experiment [1], 9420 nM in experiment [2], 12 nM in experiment [3] and 114 nM in experiment [4].
For the compound `[2H]C([2H])([2H])N1C(=O)[C@H]2CN(C(=O)C=C)[C@H](C)CN2c2c1c(=O)n(-c1c(C(C)C)ncnc1C(C)C)c1nc(-c3c(O)cccc3F)c(F)cc21` [Compound Z44, (2R,4aR)-3-acryloyl-8-(4,6-diisopropylpyrimidin-5-yl)-11-fluoro-10-(2-fluoro-6-hydroxyphenyl)-2-methyl-6-(methyl-d3)-2,3,4,4a,6,8-hexahydro-1H-pyrazino[1′,2′:4,5]pyrazino[2,3-c][1,8]naphthyridin-5,7-dione], the IC50 is 11 nM in experiment [1] (Homo sapiens, NCI-H358, 120 h); over 30000 nM in experiment [2] (Homo sapiens, A549, 120 h); 34 nM in experiment [3]; 88 nM in experiment [4].
For `C=CC(=O)N1C[C@@H]2COc3c(c4cc(F)c(-c5c(F)cccc5OC)nc4n(-c4c(C)ccnc4C(C)C)c3=O)N2C[C@H]1C` [Compound Z3a, (2R,4aR)-3-acryloyl-11-fluoro-10-(2-fluoro-6-methoxyphenyl)-8-(2-isopropyl-4-methylpyridin-3-yl)-2-methyl-1,2,3,4,4a,5-hexahydropyrazino[1′,2′:4,5][1,4]oxopyrazino[2,3-c][1,8]naphthyridin-7(8H)-one], in that order: 17 nM, over 10000 nM, 70 nM and 273 nM.
For `C=CC(=O)N1C[C@@H]2C(=O)N(C)c3c(c4cc(F)c(-c5c(O)cccc5F)nc4n(-c4c(C)cc(C)nc4C(C)C)c3=O)N2C[C@H]1C` [Compound Z46], in that order: 12 nM, 10300 nM, 68 nM and 224 nM.
For the compound `C=CC(=O)N1C[C@@H]2C(=O)N(C)c3c(c4cc(F)c(-c5c(O)cccc5F)nc4n(-c4nccnc4C(C)C)c3=O)N2C[C@H]1C` [Compound Z22, (2R,4aR)-3-acryloyl-11-fluoro-10-(2-fluoro-6-hydroxyphenyl)-8-(3-isopropylpyrazin-2-yl)-2,6-dimethyl-2,3,4,4a,6,8-hexahydro-1H-pyrazino[1′,2′:4,5]pyrazino[2,3-c][1,8]naphthyridin-5,7-dione], the IC50 in experiment [1] (Homo sapiens, NCI-H358, 120 h) was 67 nM; in experiment [2] (Homo sapiens, A549, 120 h) it was over 30000 nM; in experiment [3], 180 nM.
In the same order, the values of `C=CC(=O)N1CCN2c3c(c(=O)n(-c4c(C5CC5)ncnc4C4CC4)c4nc(-c5c(F)cccc5OC)c(F)cc34)N(C)C(=O)[C@H]2C1` [Compound Z32, (4aR)-3-acryloyl-11-fluoro-10-(2-fluoro-6-methoxyphenyl)-8-(4,6-bicyclopropylpyrimidin-5-yl)-6-methyl-2,3,4,4a,6,8-hexahydro-1H-pyrazino[1′,2′:4,5]pyrazino[2,3-c][1,8]naphthyridin-5,7-dione] are 64 nM, over 30000 nM and 170 nM.
`C=CC(=O)N1CCN2c3c(c(=O)n(-c4c(C)ccnc4C(C)C)c4nc(-c5c(O)cccc5F)c(F)cc34)N(C)C(=O)[C@H]2C1` [Compound Z9, (4aR)-3-acryloyl-11-fluoro-10-(2-fluoro-6-hydroxyphenyl)-8-(2-isopropyl-4-methylpyridin-3-yl)-6-methyl-2,3,4,4a,6,8-hexahydro-1H-pyrazino[1′,2′:4,5]pyrazino[2,3-c][1,8,8]naphthyridin-5,7-dione]: the concentration for half-maximal inhibition (IC50) stood at 32 nM in experiment [1] (Homo sapiens, NCI-H358, 120 h); 74 nM in experiment [3]; 187 nM in experiment [4].
